This note sets out measurements from patent US11512053B2, “Arginine methyltransferase inhibitors and uses thereof” (priority 2013, dated 2022).

pIC50: −log10 of the molar value. Structures can show the parent of a compound that is named as a salt. Where two headings read alike, the source gives them in different places.

Experiment [1] concerns the target full-length human PRMT1 isoform 1 (GST-tagged) (Homo sapiens, UniProt Q99873). The experiment is described as follows: PRMT1 Biochemical Assay (3H-SAM Flashplate, peptide substrate). The essentials:
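Tritiated methyl transfer from 3H-SAM onto biotinylated peptide, captured on streptavidin Flashplates and counted. Baculovirus-expressed GST-PRMT1 and compound were preincubated 30 min at room temperature in Bicine buffer pH 7.6. Cold SAM at 300 uM final ended the reaction.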

The target of experiment [2] is full-length human PRMT8 isoform 1 (Homo sapiens, UniProt Q9NR22). In words: PRMT8 Biochemical Assay (3H-SAM Flashplate, peptide substrate). To be noted: read-out: Biochemical IC50 PRMT8. The procedure, abridged: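 Scintillation Flashplate capture of biotinylated histone H4 (31-45) peptide (150 nM) methylated by 1.5 nM PRMT8 using 3H-SAM (50 nM) with unlabelled SAM (550 nM); enzyme and compound preincubated 30 min, room temperature, in Bicine pH 7.6 buffer with TCEP, BSG, Tween 20 and 2% DMSO. Stopped with excess cold SAM (400 uM); IC50 from % inhibition, min control 1 mM SAH.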
Sequence of full-length human PRMT8 isoform 1 (Q9NR22 whole entry, canonical isoform): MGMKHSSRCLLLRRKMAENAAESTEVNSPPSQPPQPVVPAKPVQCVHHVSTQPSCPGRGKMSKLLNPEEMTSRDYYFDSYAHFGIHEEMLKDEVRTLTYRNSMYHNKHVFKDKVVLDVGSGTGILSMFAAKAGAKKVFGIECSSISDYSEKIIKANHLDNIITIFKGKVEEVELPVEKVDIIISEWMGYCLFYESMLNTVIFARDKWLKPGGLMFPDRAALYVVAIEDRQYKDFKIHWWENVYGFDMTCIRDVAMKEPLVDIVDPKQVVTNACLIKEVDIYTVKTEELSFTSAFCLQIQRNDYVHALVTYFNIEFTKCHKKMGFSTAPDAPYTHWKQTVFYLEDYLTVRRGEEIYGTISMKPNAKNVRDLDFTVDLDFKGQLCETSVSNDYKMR

The mark [3] stands for this setting: single experiment or average of multiple experiments.

Sequence of full-length human PRMT1 isoform 1 (GST-tagged) (Q99873 with tags, fused parts or gaps): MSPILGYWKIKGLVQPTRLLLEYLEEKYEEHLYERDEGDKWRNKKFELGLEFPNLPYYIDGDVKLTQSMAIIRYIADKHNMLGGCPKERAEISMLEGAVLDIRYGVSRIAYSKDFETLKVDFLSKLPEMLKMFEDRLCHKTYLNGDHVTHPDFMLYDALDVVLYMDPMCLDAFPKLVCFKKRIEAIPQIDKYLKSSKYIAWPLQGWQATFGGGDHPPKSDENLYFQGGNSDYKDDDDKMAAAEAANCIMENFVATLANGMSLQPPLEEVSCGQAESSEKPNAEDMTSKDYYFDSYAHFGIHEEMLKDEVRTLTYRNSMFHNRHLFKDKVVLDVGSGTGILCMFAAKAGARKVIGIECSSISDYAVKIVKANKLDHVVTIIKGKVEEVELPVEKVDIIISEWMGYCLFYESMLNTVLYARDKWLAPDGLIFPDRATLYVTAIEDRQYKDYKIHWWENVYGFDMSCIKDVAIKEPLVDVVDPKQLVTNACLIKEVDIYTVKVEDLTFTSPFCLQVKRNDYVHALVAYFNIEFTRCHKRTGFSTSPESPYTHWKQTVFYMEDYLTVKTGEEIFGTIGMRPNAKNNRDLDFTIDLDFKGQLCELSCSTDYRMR

The term pIC50 denotes the negative decadic logarithm of the IC50, by convention in mol/L. For the compound `CNCCN(C)Cc1c[nH]nc1[C@H]1CC[C@@H](C(=O)NCCC(C)C)CC1` [Compound 204], the pIC50 was above 7.00 in experiment [1], 7.74 in experiment [1] (setting [3]), above 7.00 in experiment [2] and 7.29 in experiment [2] (setting [3]).

Regarding `CNCCN(C)Cc1c[nH]nc1[C@H]1CC[C@H](N(CCC(C)C)C(=O)CCCOC)CC1` [Compound 238], the pIC50 was above 7.00 in experiment [1], 7.53 in experiment [1] (setting [3]), above 7.00 in experiment [2] and 7.10 in experiment [2] (setting [3]).

Turning to `CNCCN(C)Cc1c[nH]nc1C1CCC(C)(C)[C@@H](C(=O)OC)C1` (some centres unmarked) [Compound 255], the pIC50 is above 7.00 in experiment [1], 7.99 in experiment [1] (setting [3]), above 7.00 in experiment [2] and 7.61 in experiment [2] (setting [3]).

On to `CNCCN(C)Cc1c[nH]nc1[C@H]1CC[C@@H](O)CC1` [Compound 217, 4-[4-([methyl[2-(methylamino)ethyl]amino]methyl)-1H-pyrazol-3-yl]cyclohexan-1-ol trifluoroacetate], for which the pIC50 in experiment [1] is above 7.00; in experiment [1] (setting [3]), 7.52; in experiment [2], above 7.00; in experiment [2] (setting [3]), 7.23.

As for `CNCCN(C)Cc1c[nH]nc1C1CCC(C)(C)[C@@H](C(=O)NCCC(C)C)C1` (stereo partly drawn) [Compound 263, (1S)-2,2-dimethyl-5-[4-({methyl[2-(methylamino)ethyl]amino}methyl)-1H-pyrazol-3-yl]-N-(3-methylbutyl)cyclohexane-1-carboxamide], the pIC50 was above 7.00 in experiment [1], 7.72 in experiment [1] (setting [3]), above 7.00 in experiment [2] and 7.45 in experiment [2] (setting [3]).

Turning to `CCN(C(=O)CC(C)C)[C@H]1CC[C@@H](c2n[nH]cc2CN(C)CCNC)CC1` [Compound 240], the pIC50 was above 7.00 in experiment [1], 8.21 in experiment [1] (setting [3]), above 7.00 in experiment [2] and 7.96 in experiment [2] (setting [3]).

Consider `CCOC[C@H]1CC(c2n[nH]cc2CN(C)CCNC)C[C@H](COCC)C1` (some centres unmarked) [Compound 188], for which the pIC50 is 6.00 to 7.00 in experiment [1], 6.56 in experiment [1] (setting [3]), 5.52 to 6.00 in experiment [2] and 5.81 in experiment [2] (setting [3]).

Regarding `CNCCN(C)Cc1c[nH]nc1[C@H]1CC[C@@H](N(CCOc2ccccc2)C(=O)CC(C)C)CC1` [Compound 222], the pIC50 is above 7.00 in experiment [1], 7.37 in experiment [1] (setting [3]), above 7.00 in experiment [2] and 7.05 in experiment [2] (setting [3]).

Regarding `CNCCN(C)Cc1c[nH]nc1C1CCC(C)(C)[C@@H](C(=O)NCC(C)C)C1` (some centres unmarked) [Compound 266], the pIC50 was above 7.00 in experiment [1], 7.71 in experiment [1] (setting [3]), above 7.00 in experiment [2] and 7.20 in experiment [2] (setting [3]).

Take `CNCCN(C)Cc1n[nH]cc1[C@H]1CC[C@]2(CC1)CC(C)(C)CO2` [Compound 201]: the pIC50 in experiment [1] and in experiment [2] was above 7.00 in each case.

In the case of `CNCCN(C)Cc1c[nH]nc1[C@H]1CC[C@@H](C(=O)N(C)CC(C)C)CC1` [Compound 215], the pIC50 was above 7.00 in experiment [1], 7.85 in experiment [1] (setting [3]), above 7.00 in experiment [2] and 7.64 in experiment [2] (setting [3]).

As to `CNCCN(C)Cc1c[nH]nc1[C@H]1CC[C@H](N(CCOC)C(=O)CC(C)C)CC1` [Compound 252], the pIC50 in experiment [1] is above 7.00; in experiment [1] (setting [3]) it was 7.51; in experiment [2], above 7.00; in experiment [2] (setting [3]), 7.29.

Consider `CNCCN(C)Cc1c[nH]nc1[C@H]1CC[C@H](N(CCC(C)C)C(=O)CCOC)CC1` [Compound 236], for which the pIC50 in experiment [1] was above 7.00; in experiment [1] (setting [3]), 7.54; in experiment [2] it was above 7.00; in experiment [2] (setting [3]), 7.24.

For `CNCCN(C)Cc1c[nH]nc1[C@H]1CC[C@@H](C(=O)N(CCCOC)CCC(C)C)CC1` [Compound 214], the pIC50 is above 7.00 in experiment [1], 7.70 in experiment [1] (setting [3]), above 7.00 in experiment [2] and 7.56 in experiment [2] (setting [3]).

For `CNCCN(C)Cc1cnn(C)c1[C@H]1CC[C@]2(CC1)CC(C)(C)CO2` [Compound 257], the pIC50 in experiment [1] was above 7.00; in experiment [1] (setting [3]), 7.53; in experiment [2], above 7.00; in experiment [2] (setting [3]), 7.51.

As for `CNCCN(C)Cc1c[nH]nc1C1CCC(F)(F)CC1` [Compound 216], the pIC50 in experiment [1] was above 7.00; in experiment [1] (setting [3]), 7.92; in experiment [2] it was above 7.00; in experiment [2] (setting [3]), 7.75.

Turning to `CCN(C(=O)CCOc1ccccc1)[C@H]1CC[C@H](c2n[nH]cc2CN(C)CCNC)CC1` [Compound 225], the pIC50 was above 7.00 in experiment [1], 8.12 in experiment [1] (setting [3]), above 7.00 in experiment [2] and 7.86 in experiment [2] (setting [3]).

As for `CNCCN(C)Cc1c[nH]nc1[C@H]1CC[C@@H](N(CCC(C)C)C(=O)CCCOC)CC1` [Compound 237], the pIC50 in experiment [1] is above 7.00; in experiment [1] (setting [3]), 7.37; in experiment [2], above 7.00; in experiment [2] (setting [3]) it was 7.08.

As for `CNCCN(C)Cc1c[nH]nc1[C@H]1CC[C@H](N(CC(C)C)C(=O)CCOC)CC1` [Compound 234], the pIC50 is above 7.00 in experiment [1], 7.79 in experiment [1] (setting [3]), above 7.00 in experiment [2] and 7.37 in experiment [2] (setting [3]).

Turning to `CNCCN(C)Cc1cn(C)nc1[C@H]1CC[C@]2(CC1)CC(C)(C)CO2` [Compound 206, Methyl([1-methyl-3-[(5R,8S)-3,3-dimethyl-1-oxaspiro[4.5]decan-8-yl]-1H-pyrazol-4-yl]methyl)[2-(methylamino)ethyl]amine hydrochloride], the pIC50 was above 7.00 in experiment [1], 7.71 in experiment [1] (setting [3]), above 7.00 in experiment [2] and 7.54 in experiment [2] (setting [3]).

For `CNCCN(C)Cc1c[nH]nc1[C@H]1CC[C@@H](N(CCC(C)C)C(=O)CCOC)CC1` [Compound 235], the pIC50 in experiment [1] is above 7.00; in experiment [1] (setting [3]) it was 7.59; in experiment [2], above 7.00; in experiment [2] (setting [3]) it was 7.36.

As to `CNCCN(C)Cc1c[nH]nc1[C@H]1CC[C@H](N(CC2CCOCC2)C(=O)CC(C)C)CC1` [Compound 192], the pIC50 is 6.00 to 7.00 in experiment [1], 6.66 in experiment [1] (setting [3]), 6.00 to 7.00 in experiment [2] and 6.34 in experiment [2] (setting [3]).

For `CCN(C(=O)CCC(C)C)[C@H]1CC[C@H](c2n[nH]cc2CN(C)CCNC)CC1` [Compound 250], the pIC50 in experiment [1] is above 7.00; in experiment [1] (setting [3]), 7.62; in experiment [2] it was above 7.00; in experiment [2] (setting [3]), 7.37.

`CNCCN(C)Cc1c[nH]nc1[C@H]1CC[C@@]2(CCC(C)(C)O2)CC1` [Compound 260]: the pIC50 in experiment [1] was above 7.00; in experiment [1] (setting [3]), 7.69; in experiment [2], above 7.00; in experiment [2] (setting [3]), 7.43.

With `CNCCN(C)Cc1c[nH]nc1[C@H]1CC[C@H](C(=O)N(C)CC(C)C)CC1` [Compound 226], the pIC50 in experiment [1] is above 7.00; in experiment [1] (setting [3]), 7.48; in experiment [2], above 7.00; in experiment [2] (setting [3]), 7.24.

On to `CNCCN(C)Cc1n[nH]cc1[C@H]1CC[C@H](C(=O)NCCC(C)C)CC1` [Compound 203], for which the pIC50 in experiment [1] is above 7.00; in experiment [1] (setting [3]), 7.55; in experiment [2], above 7.00; in experiment [2] (setting [3]), 7.07.

Regarding `CNCCN(C)Cc1c[nH]nc1[C@H]1CC[C@H](N(CCOc2ccccc2)C(=O)CCOC)CC1` [Compound 219], the pIC50 in experiment [1] is above 7.00; in experiment [1] (setting [3]) it was 8.05; in experiment [2], above 7.00; in experiment [2] (setting [3]) it was 7.82.

For `CCN(C(=O)CCOc1ccccc1)[C@H]1CC[C@@H](c2n[nH]cc2CN(C)CCNC)CC1` [Compound 224], the pIC50 is above 7.00 in experiment [1], 8.03 in experiment [1] (setting [3]), above 7.00 in experiment [2] and 7.99 in experiment [2] (setting [3]).

Regarding `CNCCN(C)Cc1c[nH]nc1C1CCC(=O)N(CCCOC)C1` (centres unmarked) [Compound 190], the pIC50 is 6.00 to 7.00 in experiment [1], 6.91 in experiment [1] (setting [3]), 6.00 to 7.00 in experiment [2] and 6.45 in experiment [2] (setting [3]).

As to `CNCCN(C)Cc1c[nH]nc1[C@H]1CC[C@H](N(CC(C)C)C(=O)CCOc2ccccc2)CC1` [Compound 232], the pIC50 in experiment [1] is above 7.00; in experiment [1] (setting [3]), 8.04; in experiment [2], above 7.00; in experiment [2] (setting [3]), 7.68.

For `CNCCN(C)Cc1c[nH]nc1[C@H]1CC[C@@H](N(CCCOC)C(=O)CCC(C)C)CC1` [Compound 244], the pIC50 was above 7.00 in experiment [1], 7.40 in experiment [1] (setting [3]), 6.00 to 7.00 in experiment [2] and 6.95 in experiment [2] (setting [3]).

Turning to `CNCCN(C)Cc1c[nH]nc1C1CCC(=O)CC1` [Compound 194], the pIC50 was above 7.00 in experiment [1], 7.84 in experiment [1] (setting [3]), above 7.00 in experiment [2] and 7.45 in experiment [2] (setting [3]).

On to `CNCCN(C)Cc1c[nH]nc1[C@H]1CC[C@@H](N(CCOc2ccccc2)C(=O)CCCOC)CC1` [Compound 228], for which the pIC50 in experiment [1] was above 7.00; in experiment [1] (setting [3]) it was 7.16; in experiment [2], above 7.00; in experiment [2] (setting [3]) it was 7.00.

With `CNCCN(C)Cc1c[nH]nc1[C@H]1CC[C@H](N(CC(C)C)C(=O)CCCOC)CC1` [Compound 249], the pIC50 in experiment [1] was above 7.00; in experiment [1] (setting [3]) it was 7.62; in experiment [2] it was above 7.00; in experiment [2] (setting [3]) it was 7.07.
